From patent US10927096B2, “Ester substituted ion channel blockers and methods for use” (Nocion Therapeutics, Inc., priority 2019, dated 2021)

Legend:
NaV1.7 = target: T1, NaV1.7 (Homo sapiens, UniProt Q15858); assay: Whole cell patch clamp, internal block of NaV1.7 current; type: cell-based; conditions: % inhibition at 1 μM test concentration, compound in internal solution, manual whole cell patch clamp
T1 construct: expressed in transfected cells; host or cells: HEK293, tetracycline-inducible
In short: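 Tetracycline-induced cells recorded 18-24 h post-induction at room temperature, compound dissolved in CsCl internal solution (pH 7.2), Ringer bath pH 7.4. From −100 mV holding, 10 ms steps to −20 mV; baseline at 30 s intervals, then four 30 s trains at 5 Hz. Fraction current remaining = last-train peak/baseline, versus control-internal cells.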

[1] = PAMPA membrane permeability assay; type: physicochemical; conditions: pH 7.4 buffer, GIT lipid, 4 hours incubation
In short: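 Passive diffusion across a GIT-lipid-painted artificial membrane, with compounds at 50 uM in pH 7.4 buffer in the donor well and 4 h incubation. Donor, acceptor and reference solutions were quantified by UV spectra, and permeability coefficients (10^−6 cm/s) were derived from AUCs. Results are binned as + (<0.1), ++ (0.1-2.0), +++ (2.0-10.0), ++++ (>10.0).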

T1 sequence (Q15858 whole entry): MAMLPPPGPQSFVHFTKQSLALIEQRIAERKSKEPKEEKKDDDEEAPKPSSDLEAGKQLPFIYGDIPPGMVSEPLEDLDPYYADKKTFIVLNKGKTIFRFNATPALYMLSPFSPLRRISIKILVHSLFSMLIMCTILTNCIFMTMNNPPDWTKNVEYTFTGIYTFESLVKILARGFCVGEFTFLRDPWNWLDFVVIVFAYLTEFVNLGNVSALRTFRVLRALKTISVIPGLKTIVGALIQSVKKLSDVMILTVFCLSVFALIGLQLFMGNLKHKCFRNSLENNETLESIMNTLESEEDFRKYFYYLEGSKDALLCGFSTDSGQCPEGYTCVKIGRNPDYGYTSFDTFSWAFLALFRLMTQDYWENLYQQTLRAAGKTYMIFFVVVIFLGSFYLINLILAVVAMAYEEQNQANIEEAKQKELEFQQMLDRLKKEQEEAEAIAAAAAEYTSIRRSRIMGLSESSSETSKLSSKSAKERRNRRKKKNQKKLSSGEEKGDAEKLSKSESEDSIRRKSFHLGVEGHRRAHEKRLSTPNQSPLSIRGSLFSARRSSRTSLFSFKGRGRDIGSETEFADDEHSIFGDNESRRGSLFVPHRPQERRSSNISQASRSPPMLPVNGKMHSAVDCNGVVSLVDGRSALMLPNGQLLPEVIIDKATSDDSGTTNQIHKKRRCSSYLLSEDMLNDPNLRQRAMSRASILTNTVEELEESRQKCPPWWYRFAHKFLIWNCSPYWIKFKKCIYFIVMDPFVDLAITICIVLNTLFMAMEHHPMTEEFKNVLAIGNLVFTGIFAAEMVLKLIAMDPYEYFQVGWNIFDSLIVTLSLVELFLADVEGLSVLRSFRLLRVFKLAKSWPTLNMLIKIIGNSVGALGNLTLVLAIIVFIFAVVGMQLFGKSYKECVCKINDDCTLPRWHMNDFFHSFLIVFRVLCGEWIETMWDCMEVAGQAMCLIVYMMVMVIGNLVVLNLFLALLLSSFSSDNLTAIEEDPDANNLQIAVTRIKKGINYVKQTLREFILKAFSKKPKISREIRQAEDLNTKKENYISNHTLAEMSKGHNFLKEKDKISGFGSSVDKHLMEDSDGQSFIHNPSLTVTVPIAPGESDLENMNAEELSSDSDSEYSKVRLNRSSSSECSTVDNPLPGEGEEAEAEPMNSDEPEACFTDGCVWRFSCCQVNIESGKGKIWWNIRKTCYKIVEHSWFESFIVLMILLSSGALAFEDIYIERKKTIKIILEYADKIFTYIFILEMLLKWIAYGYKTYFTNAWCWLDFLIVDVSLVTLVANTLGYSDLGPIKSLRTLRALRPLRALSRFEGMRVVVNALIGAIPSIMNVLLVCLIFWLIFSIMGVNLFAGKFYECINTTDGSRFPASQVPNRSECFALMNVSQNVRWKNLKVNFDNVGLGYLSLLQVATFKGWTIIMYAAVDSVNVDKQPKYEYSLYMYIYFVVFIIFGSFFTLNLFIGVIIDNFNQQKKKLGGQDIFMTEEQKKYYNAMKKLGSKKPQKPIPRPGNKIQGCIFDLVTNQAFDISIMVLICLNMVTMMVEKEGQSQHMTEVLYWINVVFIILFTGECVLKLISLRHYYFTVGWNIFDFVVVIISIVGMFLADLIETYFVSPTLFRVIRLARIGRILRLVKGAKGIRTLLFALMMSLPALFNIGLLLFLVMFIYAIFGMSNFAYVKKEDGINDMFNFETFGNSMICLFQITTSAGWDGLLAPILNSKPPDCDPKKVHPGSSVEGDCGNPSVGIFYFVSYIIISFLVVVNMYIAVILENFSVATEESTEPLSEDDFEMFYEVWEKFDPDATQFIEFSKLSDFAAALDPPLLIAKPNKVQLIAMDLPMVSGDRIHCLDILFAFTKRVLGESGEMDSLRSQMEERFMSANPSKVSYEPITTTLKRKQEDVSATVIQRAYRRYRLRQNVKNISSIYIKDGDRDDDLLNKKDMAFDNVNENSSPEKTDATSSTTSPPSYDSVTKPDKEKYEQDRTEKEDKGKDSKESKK

| SMILES | NaV1.7 Intracellular Inhibition (NaV1.7) | PAMPA (10^−6 cm/s) [1] |
| --- | --- | --- |
| Cc1cccc(C(=O)OC(C)C)c1NC(=O)C[N+]1(Cc2ccccc2)CCCCCC1.[Br-] [Compound 7] | ++++ (>90%) | + (<0.1 10^−6 cm/s) |
| CC[N+]1(CC(=O)Nc2c(C)cccc2C(=O)OC)CCCC(C(=O)NC)C1.[I-] (centres unmarked) [Compound 46] | + (<30%) | + (<0.1 10^−6 cm/s) |
| CC[N+]1(CC(=O)Nc2c(C)cccc2C(=O)OC)CCCC(C(N)=O)C1.[I-] (centres unmarked) [Compound 55] | +++ (90-70%) | + (<0.1 10^−6 cm/s) |
| CCCNC(=O)C1CCC[N+](CC(=O)Nc2c(C)cccc2C(=O)OC)(Cc2ccccc2)C1 (mixture of isomers) [Compound 28] | ++ (70-30%) | +++ (2.0-10.010^−6 cm/s) |
| CC[N+]1(CC(=O)Nc2c(C)cccc2C(=O)OC)CCCC(C(=O)OCC(C)C)C1.[I-] (centres unmarked) [Compound 23] | +++ (90-70%) | + (<0.1 10^−6 cm/s) |
| Cc1cccc(C(=O)OC(C)(C)C)c1NC(=O)C[n+]1cccc(-c2ccccc2)c1.[Br-] [Compound 71] | ++ (70-30%) | + (<0.1 10^−6 cm/s) |
| CCc1cccc(C[N+]2(C(CC)C(=O)Nc3c(C)cccc3C(=O)OC)CCCCC2)c1.O=C[O-] (centres unmarked) [Compound 58] | +++ (90-70%) | + (<0.1 10^−6 cm/s) |
| CC[N+]1(CC(=O)Nc2c(C)cccc2C(=O)OC)CCCC(C(=O)OC2CCCCC2)C1 (mixture of isomers) [Compound 27] | ++ (70-30%) | + (<0.1 10^−6 cm/s) |
| CCOC(=O)c1cccc(C)c1NC(=O)C[N+]1(Cc2ccccc2)CCCCC1.[Br-] [Compound 4] | +++ (90-70%) | + (<0.1 10^−6 cm/s) |
| COC(=O)c1cccc(C)c1NC(=O)C[N+]1(Cc2ccccc2)CCCCC1.[Br-] [Compound 3] | ++ (70-30%) | + (<0.1 10^−6 cm/s) |
| COC(=O)c1cccc(C)c1NC(=O)C[N+]1(Cc2ccccc2)CCCC(C(=O)N2CCCC2)C1 (mixture of isomers) [Compound 43] | ++ (70-30%) | + (<0.1 10^−6 cm/s) |
| COC(=O)c1cccc(C)c1NC(=O)C[N+]1(Cc2ccccc2)CCCC(C(=O)NC(C)C)C1.[Br-] (centres unmarked) [Compound 32] | ++ (70-30%) | + (<0.1 10^−6 cm/s) |
| CCOC(=O)C1CCC[N+](CC(=O)Nc2c(C)cccc2C(=O)OC)(Cc2ccccc2)C1 (mixture of isomers) [Compound 16] | +++ (90-70%) | + (<0.1 10^−6 cm/s) |
